Results on 94 molecules are retold here after PubChem BioAssay AID464 (The Scripps Research Institute Molecular Screening Center, 2006).

Activity calls are given as the source filed them.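 The calls were made as follows: active = Compounds that kill half the cells at a concentration of 5 micromolar or below, from the fitted or estimated CC50; inactive = CC50 above 5 micromolar.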

The assay deals with Jurkat E6.1 viability, ATP luminescence, 48 h. Briefly: viability loss in Jurkat T cells – cell-based, ATP luminescence, 48 h, 60K MLSMR, cytotoxicity control, dose response (AID 464).
On to `CCOc1ccc2nc(N3CCC(C(=O)N4CCN(c5ccccn5)CC4)CC3)sc2c1`, for which the CC50 is 23.7 µM (inactive). Consider `COc1ccccc1C1C=C(c2ccccc2)Nc2nnnn21` (centres undefined), for which the CC50 is > 13 µM (inactive). With `CCOC(=O)Nc1ccc2c(c1)N(C(=O)OC)c1ccccc1CC2`, the CC50 is > 4.4 µM (inactive). The value for `CCOc1ccc2nc(-c3ccccc3)[nH]c2c1` was 3.01 µM; that for `Cc1cccc(-n2c(O)c(C=Nc3ccccc3N)c(=O)[nH]c2=O)c1` was > 13 µM (inactive); that for `Cc1cc(N2CCN(c3nc4ccccc4s3)CC2)n2ncnc2n1` was 8.41 µM (inactive). As to `CCOc1ccc(N(CC)S(=O)(=O)c2ccc3c(c2)oc(=O)n3C)cc1`, the CC50 is 2.94 µM.

On to `CCOC(=O)c1c(C)c(C(=O)Nc2ccc(N(C)C)cc2)c(C)n1CC`, for which the CC50 is 5.84 µM (inactive). On to `CCN(CC)c1nc(C#N)cc(-c2ccc(OC)cc2)n1`, for which the CC50 was 5.36 µM (inactive). With `O=C(Nc1ccc2c(c1)CCC2)C1CCN(c2c3c(nc4ncnn24)CCC3)CC1`, the CC50 is 4.5 µM. The value for `CCOC(=O)c1ccccc1NC(=O)Cn1c(-c2nonc2N)nc2ccccc21` was 0.296 µM. In the case of `N#Cc1nc(N2CCCCC2)nc(N2CCOCC2)n1`, the CC50 was 12.9 µM (inactive). On to `CCCSc1nnc(Sc2nnnn2-c2ccccc2)s1`, for which the CC50 was 1.28 µM.

Take `COc1ccc(Nc2oc(-c3ccccc3Cl)nc2C#N)cc1`: the CC50 was 1.42 µM. Turning to `CCOC(=O)c1[nH]c(C)c(C(=O)N2CCc3ccccc32)c1C`, the CC50 was 0.284 µM.

Take `C=CCN(CC=C)S(=O)(=O)c1ccc2nc(NC(=O)C(C)C)sc2c1`: the cytotoxic concentration (CC50) is 3.72 µM. The value for `COc1ccc(C(O)c2nc3ccccc3n2C)cc1OC` (centres undefined) was 5.83 µM (inactive); that for `CC(=O)Nc1ccc(S(=O)(=O)N2CCCc3ccccc32)cc1` was 3.07 µM. Take `CN(C)c1ccccc1C(=O)c1ccccc1N(C)C`: the CC50 is 0.743 µM. `CC(C)Oc1cc(O)c2c(=O)c(-c3ccc(O)cc3)coc2c1`: the CC50 was 11 µM (inactive).

Take `CCCCn1c(CN2CCN(c3cccc(Cl)c3)CC2)nc2c1c(=O)[nH]c(=O)n2C`: the CC50 is 2.84 µM. Take `Cc1nc2ccc(S(=O)(=O)Nc3ccccc3C)cc2s1`: the CC50 is 8.95 µM (inactive). Consider `N#Cc1c(NC(=O)CSc2nc(N)cc(=O)[nH]2)sc2c1CCCCCC2`, for which the CC50 was 6.25 µM (inactive). The value for `O=C(c1ccc(F)cc1)C(CN1CCOCC1)c1ccccc1` (centres undefined) was 5.53 µM (inactive). As to `Cn1nc(-c2ccc(OCC(=O)N3CCN(Cc4ccccc4)CC3)cc2)c2ccccc2c1=O`, the CC50 is 9.14 µM (inactive). For `CCCCC(=O)Nc1ccc(C(=O)NCCCn2ccnc2)cc1`, the CC50 was > 4.4 µM (inactive). `COc1ccccc1C1C=C(c2ccc(C)cc2)Nc2nnnn21` (centres undefined): the CC50 is > 40 µM (inactive). For the molecule `CC1(C)Cc2nc3sc4c(SCC(=O)NCc5ccco5)ncnc4c3cc2CO1`, the CC50 was 18 µM (inactive). The value for `CN(C)S(=O)(=O)c1ccc(N2CCN(S(=O)(=O)c3ccc(F)cc3)CC2)c(Cl)c1` was 16.1 µM (inactive); that for `COc1ccc(-c2nnc(NC(=O)c3ccccc3C)o2)cc1` was > 40 µM (inactive). As to `COc1ccc(NS(=O)(=O)c2cc(C)ccc2NC(=O)c2cc(C)oc2C)cc1`, the CC50 is 0.191 µM. Consider `N#C/C(=C/c1ccc(N2CCCCCC2)o1)c1ccc(F)cc1`, for which the CC50 was > 13 µM (inactive).

With `Cc1cc(=O)oc2cc(OCC(=O)N3c4ccccc4CC3C)ccc12` (centres undefined), the cytotoxic concentration (CC50) is 0.756 µM. The value for `COc1cc(C2=NOC(C(=O)NCc3ccc(F)cc3)C2)cc(OC)c1OC` (centres undefined) was 0.347 µM; that for `O=C(CCCc1nc(-c2ccc(Cl)cc2)no1)Nc1cccnc1` was 5.56 µM (inactive).

With `COc1ccc(C2=NOC(C(=O)NCc3ccc(F)cc3)C2)cc1OC` (centres undefined), the 50% cytotoxic concentration (CC50) is 0.318 µM.

For the molecule `CNc1nc2c(c(=O)n(C)c(=O)n2C)n1Cc1ccccc1`, the CC50 is 7.54 µM (inactive). With `CCOC(=O)N1CCN(c2c(NCc3cccs3)c(=O)c2=O)CC1`, the CC50 was 5.79 µM (inactive). For `CCOc1ccccc1CN(Cc1ccco1)S(=O)(=O)c1ccc(-n2cnnn2)c(OC)c1`, the CC50 was 4.22 µM.

In the case of `CCN(CC)c1ccc(-c2nn3c(-c4n[nH]c5c4CCC5)nnc3s2)cc1`, the CC50 was 0.895 µM.

In the case of `Cc1ccc2c(c1)[nH]c1c(N3CCN(Cc4ccccc4)CC3)ncnc12`, the CC50 is > 40 µM (inactive). On to `COc1cccc2sc(Nc3nnc(-c4cccs4)o3)nc12`, for which the CC50 is 10.6 µM (inactive). On to `COc1cc2c(cc1OC)CN(C(=O)c1cc3ccccc3oc1=O)CC2`, for which the CC50 was 5.04 µM (inactive). Turning to `Cc1cc(C)n(-c2ccc(C(=O)Nc3ccc(S(=O)(=O)NCc4ccco4)cc3)cc2)n1`, the CC50 is 5.24 µM (inactive). `Cc1ccc(C(=O)Nc2ccc(Cl)cn2)cc1`: the CC50 is 4.48 µM. In the case of `Cc1cc(C)n(-c2nnc3n2N=C(c2c[nH]c4ccccc24)CS3)n1`, the CC50 was > 4.4 µM (inactive). For `COC(=O)c1[nH]c2c(c1C)C(=O)CC(c1ccccc1)C2` (centres undefined), the CC50 is 0.391 µM. The value for `c1ccc2c(CCNc3ncnc4nc[nH]c34)c[nH]c2c1` was 3.85 µM; that for `CCC(C)Oc1ccccc1C1CC(=O)NC2=C1C(=O)CCC2` (centres undefined) was 4.73 µM. Turning to `COc1ccc(OC)c(C2CC(=O)c3c([nH]c(C(=O)OC(C)C)c3C)C2)c1` (centres undefined), the CC50 was 1.08 µM.

For `COc1cccc(/C=N/n2c(SC)nnc2-c2ccccc2)c1O`, the CC50 is 10 µM (inactive).

In the case of `CCOc1ccc(Cl)cc1S(=O)(=O)n1cnc2ccccc21`, the CC50 was 14.8 µM (inactive).

In the case of `COc1cccc(N2CCN(C(=O)c3[nH]c(C)c(C(C)=O)c3C)CC2)c1`, the CC50 is 1.74 µM. The value for `O=C(NCCN1CCOCC1)NC1(C(F)(F)F)Oc2ccc(Cl)cc2O1` (centres undefined) was 8.23 µM (inactive); that for `CC(C)Cn1c(N)c(C(=O)CSc2ccc3c(c2)OCCO3)c(=O)n(C)c1=O` was > 40 µM (inactive).

As for `Brc1ccc(C2=Nn3c(nnc3-c3n[nH]c4c3CCC4)SC2)cc1`, the CC50 was 0.313 µM. Consider `COCCCN(C(C)=O)c1nc(-c2ccc(OC)cc2)cs1`, for which the CC50 is > 4.4 µM (inactive). For the molecule `COc1ccc(C2CC(c3c(O)cc(C)oc3=O)=NCCS2)c(OC)c1` (centres undefined), the CC50 is 0.318 µM. Take `O=C(NCc1cccnc1)c1c[nH]c2cc3c(cc2c1=O)OCCO3`: the cytotoxic concentration (CC50) is 1.09 µM. The value for `COc1ccc(C(=O)CSc2nnc(Cn3cnc4ccccc43)o2)cc1` was 2.6 µM; that for `c1ccc(-c2cccc(-c3ccccn3)n2)nc1` was 1.08 µM. As to `COc1cc(C(=O)N2CCN(c3cc(Cl)ccc3Cl)CC2)cc(OC)c1OC`, the CC50 was 0.134 µM. Consider `CCOC(=O)CCS(=O)(=O)c1nc(-c2ccccc2)cc(C(F)(F)F)n1`, for which the cytotoxic concentration (CC50) is 4.58 µM.

In the case of `CNc1nc(C)c(C(=O)OCc2ccccc2)s1`, the CC50 was 9.81 µM (inactive). In the case of `Cc1nn(Cc2ccccc2Cl)c(C)c1C(=O)Nc1nnc(C2CC2)s1`, the CC50 is > 40 µM (inactive). The value for `COc1ccc(C2=NOC(C(=O)NCc3ccccc3)C2)cc1` (centres undefined) was 3.26 µM. Turning to `CC(C)C(=O)NC(c1ccco1)c1ccc2cccnc2c1O` (centres undefined), the CC50 is 2.89 µM. The value for `COc1cc(C2Nc3ccc4ncccc4c3C3=C2C(=O)CCC3)cc(OC)c1O` (centres undefined) was 6.15 µM (inactive); that for `COc1ccccc1N1CCN(c2nc(C)nc3c2oc2ccccc23)CC1` was 1.04 µM. The value for `CCOc1ccc(C2=Nn3c(nnc3-c3ccc(OC)cc3)SC2)cc1` was 0.841 µM; that for `O=C(Nc1nc(-c2ccc3c(c2)OCO3)cs1)c1ccncc1` was > 40 µM (inactive). Next, `O=S1(=O)C=C(Sc2nc3cc(Cl)ccc3o2)c2ccccc21`: 9.93 µM (inactive); `Cn1ncnc2c(=O)n(C)c(=O)nc1-2`: 2.06 µM. Take `Cn1cc(/C(Cc2ccccc2)=N\O)c2ccccc21`: the CC50 was 12.9 µM (inactive). With `Cc1cccc(-n2ncc3c(NCc4ccccc4)ncnc32)c1`, the CC50 is 3.86 µM. In the case of `O=C(C1CC1)N1CCC(c2nc(-c3ccc(S(=O)(=O)NCC4CCCO4)cc3)no2)CC1` (centres undefined), the CC50 was 9.95 µM (inactive). Regarding `CCc1ccc2oc(-c3cc(N)cc(C)c3O)nc2c1`, the CC50 was > 13 µM (inactive). As for `COc1ccc(C(=O)n2c(-c3ccco3)nc3ccccc32)cc1`, the CC50 is 1.79 µM. As for `COc1ccc(-c2n[nH]c(C)c2-c2ccc(OC)c(OC)c2)c(O)c1`, the CC50 was > 4.4 µM (inactive).

For the molecule `CCOc1cc(N2CCOCC2)c(OCC)cc1NS(=O)(=O)c1ccc(Cl)s1`, the cytotoxic concentration (CC50) is 1.84 µM. As for `O=c1cc(-c2ccccc2)[nH]c2nc3ccccc3n12`, the CC50 was 9.38 µM (inactive).

On to `Cc1ccccc1S(=O)(=O)Cc1ccc(C(=O)N2CCN(c3cccc(C)c3C)CC2)o1`, for which the CC50 is 2.27 µM. As for `CCCCCCc1ccc(-c2ncc(N)cn2)cc1`, the CC50 was 28.5 µM (inactive). Turning to `C=CCOC(=O)c1[nH]c2c(c1C)C(=O)CC(c1cc(OC)c(OC)c(OC)c1)C2` (centres undefined), the CC50 was 24 µM (inactive). Take `Oc1c(C(Nc2nc3ccccc3s2)c2ccco2)ccc2cccnc12` (centres undefined): the CC50 is 7.79 µM (inactive). On to `COc1cccc(C2=CC(c3cc(OC)ccc3OC)n3nnnc3N2)c1` (centres undefined), for which the CC50 is 11.7 µM (inactive). As to `Cn1nc(CC(=O)Nc2ccc(N3CCN(C(=O)OC(C)(C)C)CC3)cc2)c2ccccc2c1=O`, the CC50 was > 13 µM (inactive). Next, `Cc1cc(C)nc(SCC(=O)Nc2ccc(N3CCOCC3)c(Cl)c2)n1`: 5.6 µM (inactive); `CCCc1cc(C(=O)Nc2cc(Br)ccc2O)no1`: > 40 µM (inactive); `COCCOC(=O)c1[nH]c2c(c1C)C(=O)CC(c1ccc(F)cc1)C2` (centres undefined): 5.37 µM (inactive). In the case of `Fc1ccc(Br)cc1C1C=C(c2cccnc2)Nc2ncnn21` (centres undefined), the CC50 is 8.76 µM (inactive). With `Cc1nc(C)c(C(=O)Nc2ccc(Oc3ccccc3)cc2)o1`, the CC50 is 19.4 µM (inactive). On to `COc1ccccc1N=c1oc2cc(O)ccc2cc1C(N)=O`, for which the CC50 was > 13 µM (inactive).

Consider `Cc1c(C(=O)OCC(C)C)[nH]c2c1C(=O)CC(c1ccco1)C2` (centres undefined), for which the CC50 was 0.462 µM.

The term CC50 denotes the concentration that lowers cell viability or growth by half.
